Laboratory results reported in US7329638B2, “Drug delivery compositions” (priority 2003, dated 2008).
pIC50: −log10 of the molar value. Where “and” joins values, the source holds several entries; their conditions need not be identical. Equal entries are not always repeated.

Tests used:
MCF7/ADR cells = test: MTT cytotoxicity and drug accumulation in doxorubicin resistant MCF7/ADR cells; format: cell-based; conditions: for pIC50: Homo sapiens, NCI/ADR-RES, 48 h, MCF7/ADR, 48 hrs exposure, MTT
Experimental: In some embodiments, monolayer doxorubicin sensitive (MCF7) and resistant (MCF7/ADR) cells were then exposed to either doxorubicin or TAT-Dox conjugates at various concentrations (up to 100 μM) for 48 hrs in the presence or absence of 10 μM verapamil. Cell viability was measured by MTT assay. […] Verapamil, a P-glycoprotein inhibitor, was able to restore most of the cytotoxic activities of free doxorubicin.

[1] = tested on: CT-26 murine adenocarcinoma colon cancer cells; test: MTT cytotoxicity in CT-26 cells in log-phase culture; format: cell-based; conditions: CT-26, MTT
Experimental: Various doses of each test compound were added to 96-well culture plates containing approximately 5,000 cells/well. The plates were incubated for 48 hrs at 37° C. under an atmosphere of 5% CO2 in humidified air. Remaining cells were assessed using MTT and compared to untreated control wells. Values shown are means±standard deviation.
Cytotoxicity was measured as described in FIG. 8.
Various doses of each compound were added to 96-well culture plates containing approximately 5,000 cells/well. The plates were incubated for 48 hrs at 37° C. under an atmosphere of 5% CO2 in humidified air in an incubator. Test cells were assessed by MTT assay and then compared to untreated cells in control wells. Values are represented as means±standard deviation. Each experiment was performed in triplicate.
In additional embodiments, the cytotoxicity of gelonin and the TAT-Gel conjugates were examined in CT-26 murine adenocarcinoma colon cancer cells in log-phase culture.

MCF-7 cells [2] = test: Cellular uptake of FITC-labeled gelonin and TAT-Gel (FACS and confocal microscopy); format: cell-based; conditions: MCF-7, FITC label, 10 nM, 1 hr at 37° C.
Experimental: FIGS. 7A-7D show the cellular uptake of TAT and TAT-Gel conjugates into MCF-7 cells. The left two panels provide confocol microphotograph sections of DIC image and corresponding fluorescent images, whereas right panels show FACS results (ordinate, number of cells, abcissa, fluorescent intensity). Cells were treated with FITC-labeled gelonin (FIG. 7A); TAT-Gel (FIG. 7B); TAT-Gel+heparin (FIG. 7C); and TAT-Gel+heparin and then+protamine (FIG. 7D). Protein concentration was adjusted to 10 nM, and the incubation time was 1 hr at 37° C.
In certain embodiments, the TAT-mediated cell internalization and the cytotoxicity of TAT-Gel were examined in vitro in MCF-7 and CT-26 cell cultures. The membrane-transducing ability of the TAT-Gel conjugates was determined using fluorescence (FITC)-labeled gelonin or TAT-Gel added to the culture media of MCF-7 cells, followed by analysis by both the fluorescence activated cell sorting (FACS) and confocol microscopy. […] On the other hand, almost all of the FITC labels were found inside, and specifically inside the cytosol (see confocol results), of all (˜100%) cells (see the FACS data) within one hour of incubation of the cells with the TAT-Gel conjugates (FIG. 7B). Considering the fact that gelonin exerts its cytotoxic activity via binding with ribosomes and cleaving RNA, this cytosolic localization actually yields beneficial therapeutic affects. […]

CT26 colon carcinoma = test: Tumor regression in CT-26 tumor-bearing mice, intratumoral injection (gelonin series); format: in vivo, BALB/c mice
murine tumor tissues = test: Tumor penetration of rhodamine-labeled gelonin and TAT-Gel; format: in vivo, mice; conditions: tumors isolated at 10 hrs after injection
Description: FIGS. 18A and 18B show tumor penetration of rhodamine-labeled TAT-Gel conjugates (FIG. 18A), and free gelonin (FIG. 18B). Tumors were isolated at 10 hrs after injection of the rhodamine-labeled TAT-Gel conjugate or free gelonin and then photographed.
To further confirm that TAT-Gel conjugates penetrate into tumor tissues, rhodamine-labeled gelonin was used in several additional in vivo studies. […] The extremely efficient tumor penetration and widespread drug distribution capabilities of the compositions and methods of the present invention are of great significance to anticancer therapy.

implanted tumors = test: Tumor regression in tumor-bearing mice, intratumoral injection (RNase series); format: in vivo; conditions: excised thirty days (4 weeks) after initial treatment
Experimental: Drugs were administered by intratumoral injection. Injections were started 3 weeks after tumor cell implantation when tumors reached the size about 100 mm^3. Thirty days after initial treatment, mice were sacrificed and their tumors were excised, weighed, and photographed.
For example, in test animals an average tumor weight of 2.92±0.47 g (N=5) was observed 4 weeks after treatment (Lane 4; FIG. 11B) that was statistically indistinguishable from the value of 3.16±0.65 g (Lane 2 in FIG. 11B) of the control group without treatment. […] The addition of protamine to the heparin-inhibited TAT-RNase conjugates completely reversed inhibition and tumor growth was regressed to an insignificant weight of 0.09±0.05 g (Lane 5; FIG. 11B).

MCF-7 cells [3] = test: Cell translocation and uptake kinetics of FITC-labeled LMWP and TAT; format: cell-based
Experimental: Cells were incubated with the FITC-labeled peptides and then lysed. Fluorescence intensities in the supernatants were measured.
In some embodiments, purified LMWP was prepared according to the method described in L.C. Chang et al., AAPS PharmSci., 3(2) Article 17 [2001]. In some additional embodiments, cell internalization characteristics of TAT and LMWP were compared by confocol microscopy using FITC-labeled peptides. Like TAT, after 15 min of incubation with MCF-7 cells at 37° C., more than 70% of the FITC-labeled LMWP entered the cytosol of the MCF-7 cells (FIG. 13). […] The reason for the difference in cell localization remains unclear, however, while the present invention is not limited to any particular mechanism, it is contemplated that TAT, which contains the sequence of the nuclear localization signal (NLS) peptide, can penetrate into the cell's nucleus either through pores on the nuclear envelope, or via binding with certain cytoplasmic components which confer nuclear localization. (L. Chaloin et al., Biochem. Biophys. Res. Commun., 243:601-608 [1998]; and M. A. Zanta M A et al., Proc. Natl. Acad. Sci. USA, 96:91-96 [1999]). In some embodiments, the localization of TAT and TAT-like peptides can be directed to the cytoplasm or to other sites within the cell by making altering portions of its amino acid sequence. (See e.g., M. M. Gottesman et al., Nature Reviews Cancer, 2:48-58 [2002]). In some preferred embodiments, the sequence of the PTD component/subcomponent of the drug delivery composition is selected or modified (e.g., amino acid sequence altered) so that the composition and the therapeutic molecule(s) being carried are localized to the cytoplasm. The present invention contemplates that in certain embodiments the localization of the drug delivery compositions to the cytoplasm aids in the penetration of the therapeutic molecules throughout the targeted tissue (e.g., from the tumor periphery to the tumor core).
FIG. 14 provides a comparison of the rate of cellular uptake of LMWP and TAT. […]

CT-26 cells = test: Translocation of rhodamine-labeled gelonin by TAT or LMWP (fluorescence microscopy); format: cell-based; conditions: CT-26, 2 hrs incubation
Experimental: FIGS. 15A and 15B show the translocation of gelonin into the CT-26 cells with the aid of: TAT (FIG. 15A); or LMWP (FIG. 15B). Fluorescent microscopy was conducted on cells treated with rhodamine-labeled TAT- or LMWP-gelonin following 2 hrs of incubation in CT-26 cells.
In some embodiments, studies were preformed to compare the capabilities of LMWP and TAT in protein translocation. In some of these embodiments, the LMWP and TAT peptides were conjugated to gelonin using the PDPH method described herein. To create a -SH group for coupling, LMWP was modified prior to its conjugation by treatment with SPDP and DTT, using the protocol established by J. Carlsson et al., (J. Carlsson et al., Biochem. J., 173:723-737 [1978]). Gelonin was labeled with rhodamine prior to conjugation.

[4] = oral administration; cited from earlier work

## COc1cccc2c1C(=O)c1c(O)c3c(c(O)c1C2=O)C[C@@](O)(C(=O)CO)C[C@@H]3O[C@H]1C[C@H](N)[C@H](O)[C@H](C)O1 [Dox, doxorubicin]
MCF7/ADR cells; Verapamil (10 μM)
  pIC50: 5.17
MCF7/ADR cells; without verapamil
  pIC50: 4.34
MCF7/ADR cells; MCF7/MDR cells
  IC50 of free doxorubicin relative to Dox-TAT conjugates: ~8 fold
MCF7/ADR cells; MDR cells
  amount of doxorubicin seen in cells by fluorescence microscopy: negligible amount

## gelonin
[1]
  cytotoxicity / inhibition of cell growth (in words): did not induce cell death
[1]; listed as Gelonin
  cytotoxicity / inhibition of cell growth (in words): did not display any detectable inhibition on cell growth
MCF-7 cells [2]
  cellular uptake (confocal and FACS, in words): virtually no cellular uptake
CT26 colon carcinoma; excised thirty days (four weeks) after initial treatment, intratumoral, 9 treatments
  average tumor mass: 2.63 ± 0.5 g and 2.62 ± 0.53 g
CT26 colon carcinoma; two and four weeks after intratumoral injection
  gross appearance of tumor after treatment: not cytotoxic to the tumor
Murine tumor tissues
  tumor penetration (rhodamine staining of excised tumor): virtually no staining or only sporadic weak staining

## RNase
Implanted tumors
  average tumor mass: 2.92 ± 0.47 g

## TAT: highly cationic 11 amino acid section of the TAT-peptide (YGRKKRRQRRR; SEQ ID NO:6)
MCF-7 cells [3]; MCF-7
  rate of cellular uptake (comparison in words): slightly faster cellular uptake than LMWP
MCF-7 cells [3]; MCF-7, FITC-labeled peptides
  incubation time at which cellular concentration reached a maximum: 30 min
MCF-7 cells [3]; MCF-7, after 30 min incubation
  subcellular localization: primarily localizes in the nucleus
CT-26 cells
  translocation of rhodamine-labeled gelonin into cells: capable of translocating gelonin

## N[C@@H](Cc1ccc(O)c(O)c1)C(=O)O [levodopa, L-3,4-dihydroxy-phenylalanine]
[4]
  fraction that penetrates the CNS: less than 1%
